Columns and labels:
[1] = system: alachlor antibodies; test: inhibition ELISA for alachlor (cross-reactivity studies); type: binding, rabbit; details: for reaction (cross-reactivity) with the antibodies, in words: relative to alachlor; for ELISA % Absorbance MEAN (n = 20): antisera from bleed seven
Protocol: Immunoassays. A known "checkerboard assay" was initially conducted with each serum sample after the first boost to detect the production of antibodies against alachlor. […] The next 7 rows received the subsequent dilutions of the screening antigen. The plate was covered with Parafilm and stored overnight at 4°C. The next morning, the unbound screening antigen was removed from the wells by washing three times with phosphate buffered saline solution (0.01 M phosphate buffer of pH 7.4, 0.15 M NaCl; PBS). The remaining active sites in the wells were blocked with PBS-8% non-fat dry milk solution, (NFDM, 0.3 mL) for 1 hr at 22°C. Serum, which had been stored at -20°C, was freshly thawed and serially diluted (one to two) from 1,000 to 64,000-fold using PBS-T (PBS containing 0.02% Tween 20). Starting with the most concentrated solution, 0.1 mL of the serum solution was pipetted into all 8 wells of column 1; the remaining columns received the subsequent dilutions of the serum solution. The plate was covered and incubated at 22°C for 1.5 hrs. Following triplicate washes of the wells with PBS-T, each of the wells received 0.1 mL of goat anti-rabbit gamma-globulin conjugated to horseradish peroxidase (GAR-HRP) freshly thawed and diluted 4,000 fold with PBS-1% NFDM. After a final wash cycle (4 times) with PBS-T, freshly prepared O-phenylene diamine (PDA) substrate solution (0.2 mL, 0.04 mg/mL PDA and 0.01% H₂O₂ in 0.05 M citric acid and 0.15 M sodium dibasic phosphate, pH 5.0) was dispensed into each of the wells and incubated in the dark at 22°C for 30-60 min. Sulfuric acid (4 N, 50 µL) was added to each of the wells to stop the reaction, and the final absorbances of the wells (490 nm) were recorded.
The inhibition ELISA required one additional step in the assay procedure described above. Equal volumes of the diluted serum and aqueous alachlor standard or unknown sample were mixed and preincubated at 22°C for 1 hr. This mixture (0.1 mL/well) was then analyzed in 6 replicate wells on the plate. The presence of free alachlor inhibited the binding of the antibody to the alachlor-BSA conjugate, resulting in an inhibition of the development of absorbance at 490 nm. The amount of free alachlor was indirectly proportional to the intensity of color developed. Levels of alachlor in unknown water samples were calculated based on the alachlor standards on the same plate. Alachlor standards (0, 0.2, 0.5, 1.0, 3.0, 5.0, and 8.0 ppb in deionized water) were stored at -20°C in 1-mL portions, and were freshly thawed for each assay.
Data Calculations. The lay-out of a typical 96-well microtiter plate is 8 rows of 12 columns in an inhibition ELISA assay for alachlor. The first 6 wells in the first column of wells were not coated with the screening antigen and served as the background wells. The first 6 wells in the remaining 7 columns of wells were reserved for the seven alachlor standards (0 to 8 ppb) listed above. The remaining wells in all 8 rows were used for the samples. The uncorrected absorbances of the wells determined by the Bio-tek reader were used in the following calculations. The median was calculated for the 6 replicate background wells and was then subtracted from the medians of the standards and samples. All the median values were divided by the median of the standard without alachlor (0 ppb) to generate percentages of absorbances. The percent absorbance of the alachlor standards was then plotted on the Y axis against the logarithm (base 10) of the actual concentrations of alachlor on the X axis. A hyperbolic curve was drawn through the standards, and the resulting standard curve was used to calculate the concentrations of alachlor in the unknown samples.
The calculations described above were usually carried out using a computer program.

[2] = system: antibodies toward butachlor; test: inhibition ELISA for butachlor; type: binding, rabbits; details: standard solutions at 10 and 50 ppb in DI water
Description: (§1) The generation of antibodies toward butachlor (2-chloro-2′,6′-diethyl-N-(butoxymethyl)acetanilide), amidochlor (2-chloro-2′,6′-diethyl-N-acetamidomethyl acetanilide), and metolachlor (2-chloro-2′-ethyl-6′-methyl-N-(2-methoxy-1-methylethyl)acetanilide) were accomplished following identical procedures as those described for alachlor. The individual 14C-labeled chloroacetanilide was covalently bound to HSA (human serum albumin) with AHT, and to sheep IgG with AMSA.
(§2) The hapten-IgG conjugates were used to immunize rabbits. The corresponding hapten-BSA conjugates were then utilized in checkerboard assays to determine the presence of desired antibodies in the antisera. An inhibition ELISA for butachlor was set up with antiserum, butachlor-HSA screening antigen, and butachlor. Similar assays were also set up for amidochlor and metolachlor.
(§3) The sensitivity of the inhibition ELISA for butachlor, amidochlor, and metolachlor was tested with respective standards prepared in DI water. Using the best antiserum, the butachlor ELISA produced an IC50 of 8 ppb.
(§4) The specificity of the ELISA for butachlor, amidochlor, and metolachlor were tested using standard solutions of alachlor, acetochlor, butachlor, amidochlor, metolachlor, and propachlor at concentrations of 10 and 50 ppb in DI water. At these concentrations, the ELISA assay for butachlor, amidochlor, and metolachlor was each inhibited only by the respective free hapten, and not by any of the other chloroacetanilides.

[3] = system: antibodies toward amidochlor; test: inhibition ELISA for amidochlor; type: binding, rabbits; details: standard solutions at 10 and 50 ppb in DI water
Description: as §1, §2, §3, §4

Row | Compound | percent cross-reactivity ([1]; bleed four) | cross-reactivity in the subsequent bleeds ([1]; bleeds after bleed four) | reaction (cross-reactivity) with the antibodies, in words [1] | inhibition of the ELISA assay for butachlor [2] | inhibition of the ELISA assay for amidochlor [3] | ELISA % Absorbance MEAN (n = 20) ([1]; Alachlor Conc. 0.2 ppb) | ELISA % Absorbance MEAN (n = 20) ([1]; Alachlor Conc. 0.5 ppb) | ELISA % Absorbance MEAN (n = 20) ([1]; Alachlor Conc. 1.0 ppb) | ELISA % Absorbance MEAN (n = 20) ([1]; Alachlor Conc. 3.0 ppb) | ELISA % Absorbance MEAN (n = 20) ([1]; Alachlor Conc. 5.0 ppb) | ELISA % Absorbance MEAN (n = 20) ([1]; Alachlor Conc. 8.0 ppb) | percent cross-reactivity ([1]; IC50 of alachlor divided by IC50 of analog x 100, bleed not stated)
1 | CCOCN(C(=O)CCl)c1c(C)cccc1CC [Acetochlor, acetochlor] | 10% | decreased slightly | little to no interaction | not | not |  |  |  |  |  |  | 
2 | CCc1cccc(CC)c1N(COC)C(=O)CCl [Alachlor, α-chloro-2′,6′-diethyl-N-methoxymethyl acetanilide] |  |  |  | not | not | 78.1% | 55.3% | 37.4% | 22.9% | 17.7% | 11.3% | 100%
3 | CC(C)N(C(=O)CCl)c1ccccc1 [Propachlor, propachlor] |  |  | little to no interaction | not | not |  |  |  |  |  |  | 
